According to patent publication US11479802B2, “Assays for screening activity of modulators of members of the hydroxy steroid (17-beta) dehydrogenase (HSD17B) family” (Regeneron Pharmaceuticals, Inc., priority 2017, dated 2022):
Structures can show the parent of a compound that is named as a salt.

Biological target: T1, human HSD17B13 (Homo sapiens, UniProt Q7Z5P4)
T1 sequence (Q7Z5P4 20-300): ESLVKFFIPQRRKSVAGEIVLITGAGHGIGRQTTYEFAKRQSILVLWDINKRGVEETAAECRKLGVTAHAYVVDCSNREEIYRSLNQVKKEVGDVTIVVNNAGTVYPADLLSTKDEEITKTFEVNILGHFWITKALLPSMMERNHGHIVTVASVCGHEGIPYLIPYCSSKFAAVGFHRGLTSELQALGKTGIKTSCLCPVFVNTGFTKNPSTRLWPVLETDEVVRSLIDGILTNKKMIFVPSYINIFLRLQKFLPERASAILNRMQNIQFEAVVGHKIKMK
Assay: Substrate screening of steroid and bioactive lipid libraries against purified recombinant HSD17B13 (NADH-linked luciferase assay)
Type: biochemical
Details: for HSD17B13 Enzymatic Activity Relative Light Units: 500 μM NAD+, 100 ng enzyme, 3 hours at 23° C.; for HSD17B13 Enzymatic Activity Percent Estradiol Control: normalized to 50 μM estradiol after subtraction of 5% DMSO
Method in brief: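 Substrates (bioactive lipids 5 μM, steroids 50 μM; 5% DMSO) tested with 500 μM NAD+ and 100 ng recombinant human HSD17B13 in 0.2 M Tris-HCl pH 7.5, 3 h, 23° C. Luminescent NADH detection followed 1 h later; RLU normalized to estradiol (50 μM, 100%) and DMSO (0%) controls.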

[1] = Bioactive Lipid Library, 5 μM bioactive lipid (Estradiol Control 50 μM)
[2] = Bioactive Lipid Library, 5 μM bioactive lipid

Compound	HSD17B13 Enzymatic Activity Relative Light Units [1]	HSD17B13 Enzymatic Activity Percent Estradiol Control [2]	HSD17B13 Enzymatic Activity Relative Light Units (Steroid Library, 50 μM steroid)	HSD17B13 Enzymatic Activity Percent Estradiol Control (Steroid Library, 50 μM steroid)
CCCCCC(=O)CC[C@@H]1[C@H](C/C=C\CCCC(=O)O)[C@@H](O)C[C@H]1O [8-iso-13,14-dihydro-15-keto Prostaglandin F2α]	212520 RLU	−5.58%		
C[C@]12C=CC(=O)C=C1CC[C@@H]1[C@@H]2C(=O)C[C@@]2(C)[C@H]1CC[C@]2(O)C(=O)CO [Prednisone]			196720 RLU	0.63%
CCCCC/C=C\C/C=C\C/C=C\CC(O)C1CCCC(=O)O1 (racemic) [(±)5(6)-DiHET lactone]	411120 RLU	6.50%		
C[C@]12CC[C@H](O)C[C@@H]1CC[C@@H]1[C@@H]2CC[C@]2(C)C(=O)CC[C@@H]12 [Epiandrosterone]			185800 RLU	0.44%
CCCCCC(O)C=CC1OC(=O)CC(O)C1CC=CCC(=O)O (stereo not drawn) [11-dehydro-2,3-dinor Thromboxane B2]	183120 RLU	−7.90%		
CCCCC/C=C\C[C@H](O)/C=C/C=C/C=C\[C@@H](O)CCCC(=O)O [12-epi Leukotriene B4]	389240 RLU	8.39%		
C[C@]12C[C@H]3S[C@H]3C[C@@H]1CC[C@@H]1[C@@H]2CC[C@@]2(C)[C@H]1CC[C@@]2(C)O [(2a,3a,52,17b)-Androstan-17ol,2,3-epithio-17-methyl]			100160 RLU	−1.06%
CC/C=C\C[C@H](O)/C=C/[C@@H]1[C@@H](CC(=O)CCCCC(=O)O)[C@@H](O)C[C@H]1O [Δ17-6-keto Prostaglandin F1α]	286120 RLU	0.24%		
C[C@]12CCC(=O)C=C1CC[C@@H]1[C@@H]2CC[C@]2(C)C(=O)CC[C@@H]12 [Androstenedione]			172400 RLU	0.21%
O=P(O)(O)O[C@@H]1C(O)[C@H](OP(=O)(O)O)[C@@H](O)C(O)[C@H]1O (stereo partly drawn) [D-myo-Inositol-1,3-diphosphate (sodium salt)]	487280 RLU	12.25%		
CC(C)OC(=O)CCC/C=C\C[C@@H]1[C@@H](/C=C/[C@@H](O)COc2cccc(C(F)(F)F)c2)[C@H](O)C[C@@H]1O [Fluprostenol isopropyl ester]	467040 RLU	14.54%		
CC/C=C\C[C@H](O)/C=C/[C@@H]1[C@H](C/C=C\CCCC(=O)O)[C@@H](O)C[C@H]1O [8-iso Prostaglandin F3α]	361040 RLU	6.16%		
CC/C=C\C/C=C\C=C\[C@@H](O)C/C=C\C/C=C\CCCC(=O)O [11(S)-HEPE]	1525600 RLU	92.11%		
CCCCC/C=C\C=C\[C@H](CCCCCCCC(=O)O)OO [9(S)-HpODE]	219240 RLU	−5.03%		
CCCCC/C=C\C/C=C\C/C=C\C=C\[C@@H](O)CCCC(=O)O (racemic) [(±)5-HETE]	431960 RLU	10.79%		
O=P([O-])(O)O[C@@H]1C(O)[C@H](OP(=O)([O-])O)[C@H](O)C(O)[C@H]1O.[Na+].[Na+] (stereo partly drawn) [D-myo-Inositol-1,5-diphosphate (sodium salt)]	443840 RLU	8.97%		
C[C@]12CC[C@H]3[C@@H]([C@H]4C[C@H]4[C@]4(O)C[C@@H](O)CC[C@]34C)[C@@H]1[C@@H]1C[C@@H]1C2=O [3b,5-Dihydroxy-6b,7b:15b,16b-dimethylene-5b-androstan17-one]			183120 RLU	0.39%
CCCCCC1OC1C/C=C\C/C=C\C/C=C\CCCC(=O)O (racemic) [(±)14(15)-EET]	305720 RLU	1.41%		

Compound	HSD17B13 Enzymatic Activity Relative Light Units [1]	HSD17B13 Enzymatic Activity Percent Estradiol Control [2]	HSD17B13 Enzymatic Activity Relative Light Units (Steroid Library, 50 μM steroid)	HSD17B13 Enzymatic Activity Percent Estradiol Control (Steroid Library, 50 μM steroid)
CCCCC/C=C\C[C@@H](O)/C=C/C=C\C/C=C\CCCC(=O)O [12(R)-HETE]	1932320 RLU	122.36%		
CCCCC[C@H](O)/C=C/[C@H]1[C@H](O)CC(=O)[C@@H]1C/C=C\CCCC(=O)Oc1ccc(NC(=O)c2ccccc2)cc1 [Prostaglandin E2 p-benzamidophenyl ester]	404280 RLU	9.58%		
CCCCCCCC\C=C/C=C/C=C/[C@@H]1O[C@H]1CCCC(=O)OC [Leukotriene A3 methyl ester]	990560 RLU	55.92%		
C[C@@H](O)CCC[C@H](O)/C=C/[C@@H]1[C@@H](C/C=C\CCCC(=O)O)[C@@H](O)C[C@H]1O [19(R)-hydroxy Prostaglandin F2α]	371400 RLU	6.98%		
Ptdlns-(4,5)-P2 (1,2-dioctanoyl) (sodium salt)	348680 RLU	1.79%		
CCCCC[C@H](O)/C=C/C=C\CCCCCCCCCC(=O)O [15(S)-HEDE]	1060680 RLU	57.54%		
Ptdlns-(3,4)-P2 (1,2-dipalmitoyl) (sodium salt)	351680 RLU	2.01%		
CCCCC/C=C\C/C=C\C=C\C(O)C/C=C\CCCC(=O)O (racemic) [(±)8-HETE]	592720 RLU	22.75%		
C[C@]12C[C@H](O)[C@H]3[C@@H](CCC4=CC(=O)CC[C@@]43C)[C@@H]1CC[C@@H]2C(=O)CO [Corticosterone]			215320 RLU	0.96%
CC/C=C\C/C=C\C/C=C\C/C=C\CC(O)/C=C/C=C\CCC(=O)O (racemic) [(±)8-HDHA]	773120 RLU	36.16%		
CCCCC/C=C\C/C=C\C[C@H](O)/C=C/C=C\CCCC(=O)O [9(S)-HETE]	497640 RLU	15.68%		
O=C(O)CCC/C=C\C[C@@H]1[C@@H](/C=C/[C@@H](O)CCCCCO)[C@H](O)C[C@@H]1O [20-hydroxy Prostaglandin F2α]	378680 RLU	7.56%		
CCCCC/C=C\C=C\[C@H](O)CCCCCCCCCC(=O)O [11(R)-HEDE]	1674200 RLU	103.16%		
CCCCCC(O)C(O)C/C=C\C/C=C\C/C=C\CCCC(=O)O (racemic) [(±)14(15)-DiHET]	403560 RLU	5.93%		
CCCCC/C=C\CC1OC1CCCCCCCC(=O)O (racemic) [(±)9(10)-EpOME]	354560 RLU	2.23%		
C[C@]12CCC(=O)C[C@@H]1CC[C@@H]1[C@@H]2CC[C@]2(C)[C@@H](OC(=O)c3ccccc3)CC[C@@H]12 [Androstanolone 17-benzoate]			217200 RLU	0.99%
O=P(O)(O)O[C@@H]1C(O)[C@@H](OP(=O)(O)O)[C@@H](OP(=O)(O)O)C(O)[C@H]1OP(=O)(O)O (stereo partly drawn) [D-myo-Inositol-1,2,4,5-tetraphosphate (sodium salt)]	403880 RLU	5.95%		
CCCCC[C@H](O)/C=C/[C@H]1[C@H](O)C[C@]2(C)C/C(=C\CCCC(=O)[O-])C[C@H]12.CCCCC[C@H](O)/C=C/[C@H]1[C@H](O)C[C@]2(C)C/C(=C\CCCC(=O)[O-])C[C@H]12.[Ca+2] [Ciprostene (calcium salt)]	360560 RLU	6.12%		
